# From the supplement of paper PMC4862054
# Experiments:
# Conditions in all cases: incubation time: 72 h
# [1] = system: BT-474; assay: normalised response (% of control), CellTox Green; higher = less cell death (100 = DMSO, 0 = benzethonium chloride kill control)
# Outline: (§1)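 After 72 h with compound in 384-well plates, breast cancer cell lines seeded as 20 µl suspension were read for CellTox Green fluorescence at 485/520 nm. CellTiter-Glo luminescence was then read after 10 min at room temperature. Compound was present at 5 concentrations in 10-fold steps over a 10,000-fold range set per compound, and plates were normalised to 0.1 % DMSO (100) and a positive kill control (0). Values are normalised signals, each at a single concentration.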
# [2] = system: BT-549; assay: as above
# Outline: as §1
# [3] = system: CAL-120; assay: as above
# Outline: as §1
# [4] = system: CAL-148; assay: as above
# Outline: as §1
# [5] = system: CAL-51; assay: as above
# Outline: as §1
# [6] = system: CAL-85-1; assay: as above
# Outline: as §1
# [7] = system: DU-4475; assay: as above
# Outline: as §1
# [8] = system: HCC1143; assay: as above
# Outline: as §1
# [9] = system: HCC1599; assay: as above
# Outline: as §1
# [10] = system: HCC1937; assay: as above
# Outline: as §1
# [11] = system: HDQ-P1; assay: as above
# Outline: as §1
# [12] = system: Hs578T; assay: as above
# Outline: as §1
# [13] = system: MCF-10A; assay: as above
# Outline: as §1
# [14] = system: MDA-MB-231; assay: as above
# Outline: as §1
# [15] = system: MDA-MB-436; assay: as above
# Outline: as §1
# [16] = system: MDA-MB-453; assay: as above
# Outline: as §1
# [17] = system: MDA-MB-468; assay: as above
# Outline: as §1
# [18] = system: MFM-223; assay: as above
# Outline: as §1
# [19] = system: BT-474; assay: normalised response (% of control), CellTiter-Glo; higher = more viable cells (100 = DMSO, 0 = benzethonium chloride kill control)
# Outline: as §1
# [20] = system: BT-549; assay: as above
# Outline: as §1
# [21] = system: CAL-120; assay: as above
# Outline: as §1
# [22] = system: CAL-148; assay: as above
# Outline: as §1
# [23] = system: CAL-51; assay: as above
# Outline: as §1
# [24] = system: CAL-85-1; assay: as above
# Outline: as §1
# [25] = system: DU-4475; assay: as above
# Outline: as §1
# [26] = system: HCC1143; assay: as above
# Outline: as §1
# [27] = system: HCC1599; assay: as above
# Outline: as §1
# [28] = system: HCC1937; assay: as above
# Outline: as §1
# [29] = system: HDQ-P1; assay: as above
# Outline: as §1
# [30] = system: Hs578T; assay: as above
# Outline: as §1
# [31] = system: MCF-10A; assay: as above
# Outline: as §1
# [32] = system: MDA-MB-231; assay: as above
# Outline: as §1
# [33] = system: MDA-MB-436; assay: as above
# Outline: as §1
# [34] = system: MDA-MB-453; assay: as above
# Outline: as §1
# [35] = system: MDA-MB-468; assay: as above
# Outline: as §1
# [36] = system: MFM-223; assay: as above
# Outline: as §1
# [37] = system: SK-BR-3; assay: as above
# Outline: as §1
compound,measurement,setting,value
COc1cc2c(Oc3ccc(NC(=O)C4(C(=O)Nc5ccc(F)cc5)CC4)cc3F)ccnc2cc1OCCCN1CCOCC1 [Foretinib] (10 nM),normalised response,[1],86.5%
same,normalised response,[2],95.3%
same,normalised response,[3],91.5%
same,normalised response,[4],105%
same,normalised response,[5],109%
same,normalised response,[6],107%
same,normalised response,[7],102%
same,normalised response,[8],104%
same,normalised response,[9],102%
same,normalised response,[10],97.2%
same,normalised response,[11],76.9%
same,normalised response,[12],104%
same,normalised response,[13],107%
same,normalised response,[14],102%
same,normalised response,[15],79.1%
same,normalised response,[16],84.9%
same,normalised response,[17],139%
same,normalised response,[18],97.2%
same,normalised response,[19],102%
same,normalised response,[20],105%
same,normalised response,[21],102%
same,normalised response,[22],105%
same,normalised response,[23],119%
same,normalised response,[24],100%
same,normalised response,[25],103%
same,normalised response,[26],99.6%
same,normalised response,[27],112%
same,normalised response,[28],94.7%
same,normalised response,[29],96.8%
same,normalised response,[30],99.2%
same,normalised response,[31],99.5%
same,normalised response,[32],97.7%
same,normalised response,[33],104%
same,normalised response,[34],107%
same,normalised response,[35],104%
same,normalised response,[36],103%
same,normalised response,[37],104%
COc1cc(Nc2ncc(F)c(Nc3ccc4c(n3)N(COP(=O)(O)O)C(=O)C(C)(C)O4)n2)cc(OC)c1OC [Fostamatinib] (25 nM),normalised response,[1],98.7%
same,normalised response,[2],60.2%
same,normalised response,[3],98.4%
same,normalised response,[4],99.6%
same,normalised response,[5],95%
same,normalised response,[6],106%
same,normalised response,[7],99.6%
same,normalised response,[8],100%
same,normalised response,[9],94.1%
same,normalised response,[10],102%
same,normalised response,[11],104%
same,normalised response,[12],101%
same,normalised response,[13],80.9%
same,normalised response,[14],92.3%
same,normalised response,[15],62.8%
same,normalised response,[16],105%
same,normalised response,[17],118%
same,normalised response,[18],78.7%
same,normalised response,[19],97.3%
same,normalised response,[20],104%
same,normalised response,[21],104%
same,normalised response,[22],88.7%
same,normalised response,[23],83%
same,normalised response,[24],98.5%
same,normalised response,[25],95.6%
same,normalised response,[26],101%
same,normalised response,[27],96%
same,normalised response,[28],99.5%
same,normalised response,[29],108%
same,normalised response,[30],93.4%
same,normalised response,[31],100%
same,normalised response,[32],101%
same,normalised response,[33],99.7%
same,normalised response,[34],93.7%
same,normalised response,[35],94.7%
same,normalised response,[36],91.2%
same,normalised response,[37],91.2%
CC(C)NC[C@@H](C(=O)N1CCN(c2ncnc3c2[C@H](C)C[C@H]3O)CC1)c1ccc(Cl)cc1 [GDC-0068] (100 nM),normalised response,[1],96.9%
same,normalised response,[2],98.9%
same,normalised response,[3],104%
same,normalised response,[4],82.4%
same,normalised response,[5],106%
same,normalised response,[6],108%
same,normalised response,[7],102%
same,normalised response,[8],93.9%
same,normalised response,[9],94.8%
same,normalised response,[10],104%
same,normalised response,[11],87%
same,normalised response,[12],97.8%
same,normalised response,[13],106%
same,normalised response,[14],97.8%
same,normalised response,[15],85%
same,normalised response,[16],107%
same,normalised response,[17],125%
same,normalised response,[18],102%
same,normalised response,[19],102%
same,normalised response,[20],94.2%
same,normalised response,[21],104%
same,normalised response,[22],62.8%
same,normalised response,[23],80%
same,normalised response,[24],98.3%
same,normalised response,[25],98.8%
same,normalised response,[26],100%
same,normalised response,[27],93.9%
same,normalised response,[28],90.9%
same,normalised response,[29],89.2%
same,normalised response,[30],102%
same,normalised response,[31],111%
same,normalised response,[32],104%
same,normalised response,[33],97.3%
same,normalised response,[34],84.2%
same,normalised response,[35],84%
same,normalised response,[36],68.4%
same,normalised response,[37],95.1%
CCCc1cc(C)[nH]c(=O)c1CNC(=O)c1cc(-c2ccnc(N3CCN(C)CC3)c2)cc2c1cnn2C(C)C [GSK343] (100 nM),normalised response,[1],100%
same,normalised response,[2],98.5%
same,normalised response,[3],95.3%
same,normalised response,[4],101%
same,normalised response,[5],62.8%
same,normalised response,[6],106%
same,normalised response,[7],96%
same,normalised response,[8],91.9%
same,normalised response,[9],96.3%
same,normalised response,[10],87.8%
same,normalised response,[11],105%
same,normalised response,[12],51%
same,normalised response,[13],85.8%
same,normalised response,[14],100%
same,normalised response,[15],88.6%
same,normalised response,[16],102%
same,normalised response,[17],161%
same,normalised response,[18],99.6%
same,normalised response,[19],94.8%
same,normalised response,[20],101%
same,normalised response,[21],94.6%
same,normalised response,[22],90.1%
same,normalised response,[23],67.6%
same,normalised response,[24],91.9%
same,normalised response,[25],92.5%
same,normalised response,[26],93.2%
same,normalised response,[27],82.2%
same,normalised response,[28],94.9%
same,normalised response,[29],96.5%
same,normalised response,[30],95.5%
same,normalised response,[31],92.7%
same,normalised response,[32],97.2%
same,normalised response,[33],103%
same,normalised response,[34],90%
same,normalised response,[35],84.6%
same,normalised response,[36],95.5%
same,normalised response,[37],88.1%
